Reference: patent US20260324644A1, “HERBICIDE COMPOSITION AND A METHOD FOR BURNDOWN APPLICATION” (UPL Mauritius Limited, priority 2022, published 2026)
Like-named read-outs stand apart in the source and are kept apart here.

Legend:
plants = conditions: background statement; cited from earlier work
[1] = test system: glutamine synthetase (GS); conditions: role: inhibitor, GS of bacteria and plants, cited from earlier work
Portulaca oleracea = assay: Greenhouse trial, burndown (non-crop) weed control, Portulaca oleracea; format: in vivo; conditions: 495 g a.i./ha
Procedure: (§1) Methodology: Greenhouse trials were conducted to evaluate the efficacy of the L-glufosinate on broad spectrum weeds at non-crop stage (burndown application).
(§2) The soil used was medium black soil. All treatments were in 3 replications per treatment with a spray volume of about 150 L/ha.
(§3) The percentage efficacy was calculated after 10 and 15 days of application (DAA). The herbicidal composition used was L-glufosinate (SL) at 150 g a.i./L. The application rate was 495 g a.i./ha. The target weeds were Amaranthus virids, A. spinosus, C. Album, E. geniculate, P. oleracea, P. hysterophrous, Brachiaria spp., D. retroflexa, E. colonum and the concentration of the herbicide and the results are recorded in Table 2.
(§4) The percentage efficacy was calculated after 10 and 15 days of application (DAA). The herbicidal composition used was L-glufosinate (SL) at 150 g a.i./L and 280 g a.i./L. The application rate was 495 g a.i./ha. The target weeds were Amaranthus viridis, Amaranthus spinosus, Acalypha indica, Digera arvensis, Euphorbia geniculate, Portulaca oleracea, Parthenium hysterophrous, Phyllanthus maderaspatensis and the concentration of the herbicide and the results are recorded in Table 3.

Amaranthus spinosus = assay: Greenhouse trial, burndown (non-crop) weed control, Amaranthus spinosus; format: in vivo; conditions: 495 g a.i./ha
Procedure: as §1, §2, §3, §4

E. colonum = assay: Greenhouse trial, burndown (non-crop) weed control, E. colonum; format: in vivo; conditions: Example 2, SL 150 g a.i./L, 495 g a.i./ha
Procedure: as §1, §2, §3

Parthenium hysterophrous = assay: Greenhouse trial, burndown (non-crop) weed control, Parthenium hysterophrous; format: in vivo; conditions: 495 g a.i./ha
Procedure: as §1, §2, §3, §4

Digera arvensis = assay: Greenhouse trial, burndown (non-crop) weed control, Digera arvensis; format: in vivo; conditions: 495 g a.i./ha
Procedure: as §1, §2, §4

Euphorbia geniculate = assay: Greenhouse trial, burndown (non-crop) weed control, Euphorbia geniculate; format: in vivo; conditions: for % Control after 10 DAA: Example 1; for % Control: 495 g a.i./ha
Procedure: as §1, §2
(§5) The percentage efficacy was calculated after 10 days of application (DAA). The target weeds were Amaranthus viridis, E. geniculate, P. oleracea, Brachiaria spp. and the concentration of the herbicide and the results are recorded in Table 1.
as §3, §4

Amaranthus viridis = assay: Greenhouse trial, burndown (non-crop) weed control, Amaranthus viridis; format: in vivo; conditions: for % Control: 495 g a.i./ha
Procedure: as §1, §2, §5, §3, §4

[2] = test system: Phyllanthus maderaspatensis; assay: Greenhouse trial, burndown (non-crop) weed control, Phyllanthus maderaspatensis; format: in vivo; conditions: 495 g a.i./ha
Procedure: as §1, §2, §4

Brachiaria spp. = assay: Greenhouse trial, burndown (non-crop) weed control, Brachiaria spp.; format: in vivo; conditions: for % Control: 495 g a.i./ha
Procedure: as §1, §2, §5, §3
(§6) The percentage efficacy was calculated after 10 and 15 days of application (DAA). The herbicidal composition used was L-glufosinate (SL) at 150 g a.i./L and 280 g a.i./L. The application rate was 495 g a.i./ha. The target weeds were Brachiaria spp., Dinebra retroflexa, Echonochloa colonum and the concentration of the herbicide and the results are recorded in Table 4.

Dinebra retroflexa = assay: Greenhouse trial, burndown (non-crop) weed control, Dinebra retroflexa; format: in vivo; conditions: 495 g a.i./ha
Procedure: as §1, §2, §3, §6

Acalypha indica = assay: Greenhouse trial, burndown (non-crop) weed control, Acalypha indica; format: in vivo; conditions: 495 g a.i./ha
Procedure: as §1, §2, §4

C. Album = assay: Greenhouse trial, burndown (non-crop) weed control, C. Album; format: in vivo; conditions: Example 2, SL 150 g a.i./L, 495 g a.i./ha
Procedure: as §1, §2, §3

[3] = Example 3, SL 150 g a.i./L, 10 DAA
[4] = Example 3, SL 150 g a.i./L, 15 DAA
[5] = Example 3, SL 280 g a.i./L, 10 DAA
[6] = Example 3, SL 280 g a.i./L, 15 DAA
[7] = Example 1, L-glufosinate (SL) 200 g a.i./L, rate 150 g a.i./ha, 10 DAA
[8] = Example 1, L-glufosinate (SL) 200 g a.i./L, rate 165 g a.i./ha, 10 DAA
[9] = Example 1, L-glufosinate (SL) 200 g a.i./L, rate 200 g a.i./ha, 10 DAA
[10] = Example 1, L-glufosinate (SL) 200 g a.i./L, rate 220 g a.i./ha, 10 DAA
[11] = Example 1, L-glufosinate (SL) 280 g a.i./L, rate 150 g a.i./ha, 10 DAA
[12] = Example 1, L-glufosinate (SL) 280 g a.i./L, rate 165 g a.i./ha, 10 DAA
[13] = Example 1, L-glufosinate (SL) 280 g a.i./L, rate 200 g a.i./ha, 10 DAA
[14] = Example 1, L-glufosinate (SL) 280 g a.i./L, rate 220 g a.i./ha, 10 DAA
[15] = Example 2, SL 150 g a.i./L, 10 DAA
[16] = Example 2, SL 150 g a.i./L, 15 DAA

CP(=O)(O)CC[C@@H](N)C(=O)O [D-glufosinate]
not herbicidally active: herbicidal activity (plants)
not a GS inhibitor: inhibition of glutamine synthetase (GS) [1]

CP(=O)(O)CC[C@H](N)C(=O)O.N [L-glufosinate, (S)-2-amino-4-(hydroxy(methyl)phosphonoyl)butanoic acid]
87%: % Control (Acalypha indica; [5])
83%: % Control (Dinebra retroflexa; Example 4, SL 150 g a.i./L, 10 DAA, Dinebra retroflexa) | % Control (Dinebra retroflexa; Example 4, SL 280 g a.i./L, 10 DAA, Dinebra retroflexa)
92%: % Control after 10 DAA (Euphorbia geniculate; L-glufosinate (SL) 280 g a.i./L, rate 150 g a.i./ha, 10 DAA, E. geniculate)
only the L-isomer inhibits GS: inhibition of glutamine synthetase (GS) ([1]; listed as L-isomer)
95%: % Control after 10 DAA (Euphorbia geniculate; L-glufosinate (SL) 200 g a.i./L, rate 165 g a.i./ha, 10 DAA, E. geniculate) | % Control after 10 DAA (Euphorbia geniculate; L-glufosinate (SL) 280 g a.i./L, rate 200 g a.i./ha, 10 DAA, E. geniculate)
97%: % Control (Parthenium hysterophrous; Example 3, SL 280 g a.i./L, 10 DAA, Parthenium hysterophrous) | % Control (Parthenium hysterophrous; Example 3, SL 280 g a.i./L, 15 DAA, Parthenium hysterophrous) | % Control after 10 DAA (Euphorbia geniculate; L-glufosinate (SL) 200 g a.i./L, rate 200 g a.i./ha, 10 DAA, E. geniculate) | % Control [2, 5] | % Control [2, 6]
82%: % Control (Portulaca oleracea; Example 2, SL 150 g a.i./L, 15 DAA, P. oleracea)
herbicidally active: herbicidal activity (plants)
competitive inhibitor: inhibition of glutamine synthetase (GS) ([1]; listed as L-isomer of glufosinate)
80%: % Control (Euphorbia geniculate; Example 3, SL 150 g a.i./L, 10 DAA, Euphorbia geniculate) | % Control (Acalypha indica; [3])
93%: % Control (Parthenium hysterophrous; Example 3, SL 150 g a.i./L, 10 DAA, Parthenium hysterophrous) | % Control (Parthenium hysterophrous; Example 3, SL 150 g a.i./L, 15 DAA, Parthenium hysterophrous) | % Control after 10 DAA (Euphorbia geniculate; L-glufosinate (SL) 200 g a.i./L, rate 150 g a.i./ha, 10 DAA, E. geniculate) | % Control after 10 DAA (Euphorbia geniculate; L-glufosinate (SL) 200 g a.i./L, rate 220 g a.i./ha, 10 DAA, E. geniculate) | % Control after 10 DAA (Euphorbia geniculate; L-glufosinate (SL) 280 g a.i./L, rate 220 g a.i./ha, 10 DAA, E. geniculate) | % Control [2, 3] | % Control (Brachiaria spp.; [15])
100%: % Control (Portulaca oleracea; Example 3, SL 150 g a.i./L, 10 DAA, Portulaca oleracea) | % Control (Portulaca oleracea; Example 3, SL 150 g a.i./L, 15 DAA, Portulaca oleracea) | % Control (Portulaca oleracea; Example 3, SL 280 g a.i./L, 10 DAA, Portulaca oleracea) | % Control (Portulaca oleracea; Example 3, SL 280 g a.i./L, 15 DAA, Portulaca oleracea) | % Control (Amaranthus spinosus; Example 2, SL 150 g a.i./L, 10 DAA, A. spinosus) | % Control (Amaranthus spinosus; Example 2, SL 150 g a.i./L, 15 DAA, A. spinosus) | % Control (Amaranthus spinosus; Example 3, SL 150 g a.i./L, 10 DAA, Amaranthus spinosus) | % Control (Amaranthus spinosus; Example 3, SL 150 g a.i./L, 15 DAA, Amaranthus spinosus) | % Control (Amaranthus spinosus; Example 3, SL 280 g a.i./L, 10 DAA, Amaranthus spinosus) | % Control (Amaranthus spinosus; Example 3, SL 280 g a.i./L, 15 DAA, Amaranthus spinosus) | % Control (Parthenium hysterophrous; Example 2, SL 150 g a.i./L, 10 DAA, P. hysterophrous) | % Control (Parthenium hysterophrous; Example 2, SL 150 g a.i./L, 15 DAA, P. hysterophrous) | % Control (Digera arvensis; [3]) | % Control (Digera arvensis; [4]) | % Control (Digera arvensis; [5]) | % Control (Digera arvensis; [6]) | % Control (Euphorbia geniculate; Example 2, SL 150 g a.i./L, 10 DAA, E. geniculate) | % Control (Euphorbia geniculate; Example 2, SL 150 g a.i./L, 15 DAA, E. geniculate) | % Control (Euphorbia geniculate; Example 3, SL 150 g a.i./L, 15 DAA, Euphorbia geniculate) | % Control (Euphorbia geniculate; Example 3, SL 280 g a.i./L, 15 DAA, Euphorbia geniculate) | % Control after 10 DAA (Amaranthus viridis; [7]) | % Control after 10 DAA (Amaranthus viridis; [8]) | % Control after 10 DAA (Amaranthus viridis; [9]) | % Control after 10 DAA (Amaranthus viridis; [10]) | % Control after 10 DAA (Amaranthus viridis; [11]) | % Control after 10 DAA (Amaranthus viridis; [12]) | % Control after 10 DAA (Amaranthus viridis; [13]) | % Control after 10 DAA (Amaranthus viridis; [14]) | % Control (Amaranthus viridis; [15]) | % Control (Amaranthus viridis; [16]) | % Control (Amaranthus viridis; [3]) | % Control (Amaranthus viridis; [4]) | % Control (Amaranthus viridis; [5]) | % Control (Amaranthus viridis; [6]) | % Control [2, 4] | % Control after 10 DAA (Brachiaria spp.; [7]) | % Control after 10 DAA (Brachiaria spp.; [8]) | % Control after 10 DAA (Brachiaria spp.; [9]) | % Control after 10 DAA (Brachiaria spp.; [10]) | % Control after 10 DAA (Brachiaria spp.; [11]) | % Control after 10 DAA (Brachiaria spp.; [12]) | % Control after 10 DAA (Brachiaria spp.; [13]) | % Control after 10 DAA (Brachiaria spp.; [14]) | % Control (Brachiaria spp.; [16]) | % Control (Brachiaria spp.; Example 4, SL 150 g a.i./L, 10 DAA) | % Control (Brachiaria spp.; Example 4, SL 150 g a.i./L, 15 DAA) | % Control (Brachiaria spp.; Example 4, SL 280 g a.i./L, 10 DAA) | % Control (Brachiaria spp.; Example 4, SL 280 g a.i./L, 15 DAA) | % Control (Dinebra retroflexa; Example 2, SL 150 g a.i./L, 10 DAA, D. retroflexa) | % Control (Dinebra retroflexa; Example 2, SL 150 g a.i./L, 15 DAA, D. retroflexa) | % Control (Acalypha indica; [4]) | % Control (Acalypha indica; [6]) | % Control (C. Album; 10 DAA) | % Control (C. Album; 15 DAA)
88%: % Control (Portulaca oleracea; Example 2, SL 150 g a.i./L, 10 DAA, P. oleracea)
90%: % Control (E. colonum; 10 DAA) | % Control (E. colonum; 15 DAA) | % Control after 10 DAA (Euphorbia geniculate; L-glufosinate (SL) 280 g a.i./L, rate 165 g a.i./ha, 10 DAA, E. geniculate) | % Control (Euphorbia geniculate; Example 3, SL 280 g a.i./L, 10 DAA, Euphorbia geniculate)
70%: % Control (Dinebra retroflexa; Example 4, SL 150 g a.i./L, 15 DAA, Dinebra retroflexa) | % Control (Dinebra retroflexa; Example 4, SL 280 g a.i./L, 15 DAA, Dinebra retroflexa)
